Experimental data taken from US20180168208A1 (priority 2014, published 2018).
Where two headings read alike, the source gives them in different places.

Target: T1R1/T1R3 receptor (Felis catus, UniProt E3UMS2)
Experiment: cell-based
Type: cell-based
From the text: HEK293 cells that stably express T1R3 and inducibly express T1R1 were exposed to transmembrane compounds alone or in combination with one or more amino acids and/or one or more nucleotides to activate the umami receptor. Activation of the T1R1/T1R3 receptor was detected by a change in intracellular calcium levels using a calcium sensitive fluorescent dye. Cells that express T1R3 but not T1R1 were used as a control. A FLIPR® Tetra or a FlexStation® 3 was used for data capture.
In each experiment, serial dilutions of up to 10 mM of the transmembrane compound were added to the T1R1/T1R3-expressing cells.

[1] = EC50 + IMP, + IMP (0.2 mM), Table 17
[2] = EC50 +Alanine + IMP, +Alanine (20 mM) + IMP (0.2 mM), Table 18
[3] = EC50 +IMP, +IMP (0.2 mM), Table 18
[4] = compound alone in buffer, Table 17, read-out: EC50 + buffer (alone)
[5] = compound alone in buffer, Table 18, read-out: EC50 +buffer (alone)
[6] = + Alanine, Table 17, read-out: EC50 + Alanine
[7] = +Alanine (20 mM), Table 18, read-out: EC50 +Alanine

SMILES	Max resp % of ALa + IMP (+ IMP (0.2 mM), Table 17)	Thres + IMP (+ IMP (0.2 mM), Table 17) [mM]	Max resp % of Ala +IMP (+IMP (0.2 mM), Table 18)	Max resp ΔF/F +IMP (+IMP (0.2 mM), Table 18)	EC50 [1] [mM]	EC50 [2] [mM]	EC50 [3] [mM]	activation of T1R1/T1R3 by the compound alone (in words)	EC50 [4] [mM]	EC50 [5] [mM]	Thres +Alanine (+ Alanine (20 nM), Table 17) [mM]	Max resp % of IMP + Alanine (+ Alanine, Table 17)	Max resp ΔF/F +Alanine (+ Alanine, Table 17)	EC50 [6] [mM]	Max resp ΔF/F +Alanine (+Alanine (20 mM), Table 18)	Thres +Alanine (+Alanine (20 mM), Table 18) [mM]	EC50 [7] [mM]	EC50 (read-out: EC50 + Alanine) [mM]	EC50 (EC50 - with IMP (0.2 mM), with 0.2 mM IMP) [mM]
CSc1ccc(-c2nnn(Cc3ccccn3)n2)cc1 [2-((5-(4-(methylthio)phenyl)-2H-tetrazol-2-yl)methyl)pyridine]	80.7 % of ALa	0.1575	80.7 % of Ala	0.678	0.63	0.27	0.63	–	–	–	–	–	–	–	–	–	–	–	–
CCCC(CCC)C(=O)Nc1ccc2c(c1)OCO2 [N-(benzo[d][1,3]dioxol-5-yl)-2-propylpentanamide]	108.0 % of ALa	0.0675	108.0 % of Ala	0.908	0.27	0.09	0.27	agonist of T1R1/T1R3 alone	0.35	0.35	–	–	–	–	–	–	–	–	–
O=C(NCCc1ccccc1)C(=O)NCc1cccnc1 [N1-phenethyl-N2-(pyridin-3-ylmethyl)oxalamide]	61.9 % of ALa	0.1	61.9 % of Ala	0.7625	> 0.3	0.2	> 0.3	–	> 1	> 1	1	30.2 % of IMP	0.3750	> 1	0.3750	1	> 1	–	–
CCC(CC)NC(=O)c1ccc(C)c(C)c1 [3,4-dimethyl-N-(pentan-3-yl)benzamide]	125.7 % of ALa	0.525	125.7 % of Ala	1.5475	2.1	1.7	2.1	–	> 3	> 3	3	97.8 % of IMP	1.2150	> 3	1.2150	3	> 3	–	–
CCCC(C)NC(=O)c1ccc(OC)c(C)c1 (stereo not shown) [4-methoxy-3-methyl-N-(pentan-2-yl)benzamide]	128.9 % of ALa	0.025	128.9 % of Ala	1.5875	0.1	0.03	0.1	–	0.4	0.4	0.050	126.0 % of IMP	1.5650	–	1.5650	0.050	0.2	0.2	–
CCC(CC)NC(=O)c1ccc2c(c1)OCCO2 [N-(pentan-3-yl)-2,3-dihydrobenzo[b][1,4]dioxine-6-carboxamide]	70.9 % of ALa	0.075	70.9 % of Ala	0.8725	0.3	0.2	0.3	–	> 1	> 1	0.3	25.2 % of IMP	0.3125	> 1	0.3125	0.3	> 1	–	–
COc1cc(C(=O)NC(C(N)=O)c2ccccc2)cc(Cl)c1OC (stereo not shown) [N-(2-amino-2-oxo-1-phenylethyl)-3-chloro-4,5-dimethoxybenzamide]	49.4 % of ALa	0.17	49.4 % of Ala	0.415	0.68	0.75	0.68	failed to activate T1R1/T1R3 alone	–	–	–	–	–	–	–	–	–	–	–
O=C(CN1C(=O)C(=O)N(Cc2ccccc2)C1=O)c1ccccc1 [1-benzyl-3-(2-oxo-2-phenylethyl)imidazolidine-2,4,5-trione]	135.7 % of ALa	0.08	135.7 % of Ala	1.140	–	–	–	–	–	–	1	127.6 % of IMP	1.3	–	1.3	1	–	–	–
COc1ccc(C(=O)NC(C)c2ccccc2)cc1C (stereo not shown) [4-methoxy-3-methyl-N-(1-phenylethyl)benzamide]	95.6 % of ALa	0.35	95.6 % of Ala	1.1775	1.4	1.2	1.4	–	> 3	> 3	3	41.0 % of IMP	0.51	> 3	0.51	3	> 3	–	–
CCC(CC)NC(=O)c1ccc(Br)o1 [5-bromo-N-(pentan-3-yl)furan-2-carboxamide]	149.6 % of ALa	0.3	149.6 % of Ala	1.8425	> 1	> 1	> 1	–	> 3	> 3	1	126.8 % of IMP	1.575	> 3	1.575	1	> 3	–	–
N[C@@H](Cc1ccccc1)C(=O)O [Phenylalanine, phenylalanine]	–	–	–	–	–	–	–	–	–	–	–	–	–	–	–	–	–	–	3.4 ± 0.7
COc1ccc(/C=C/C(=O)NC2CCCCC2C)cc1 (stereo not shown) [(E)-3-(4-methoxyphenyl)-N-(2-methylcyclohexyl) acrylamide]	144.0 % of ALa	0.3	144.0 % of Ala	1.7725	> 3	> 3	> 3	–	> 10	> 10	3	63.2 % of IMP	0.785	> 10	0.785	3	> 10	–	–
CCC(CC)NC(=O)c1ccc(OC)c(OC)c1 [3,4-dimethoxy-N-(pentan-3-yl)benzamide]	81.0 % of ALa	0.5	81.0 % of Ala	0.9975	2	> 3	2	–	> 10	> 10	0.3	43.9 % of IMP	0.545	> 10	0.545	0.3	> 10	–	–
